Where two headings read alike, the source gives them in different places. Values belong to the compound of their own block, whether it stands above or below them.
Key:
[1] = tested on: HeLa cells; test: MTS cell viability of HeLa cells treated with anticancer drug with or without AS-7 (48 hours); type: cell-based, human; conditions: for IC50: Homo sapiens, HeLa, 48 h, 48 hours, MTS, read-out: IC50 of bortezomib (loss of HeLa cell viability)
Description: HeLa cells were seeded in a 96 well tissue culture plate (2000 cells per well). The compounds, 10 μM AS-7 and bortezomib (BioVision, Inc., Milpitas, Calif.) at the concentrations indicated in FIG. 1, were added the following day. AS-7 was prepared according to the Ugi reaction by combination of the four components: isocyanide (III), m-cyanobenzaldehyde (IV), 2-benzoylbenzoic acid (V), and histamine (VI) in refluxing methanol (Ref. http://www.occhem.com/synthesis/2561 2.html). The Medicinal Chemistry unit of Southern Research Institute (2000 Ninth Avenue South Birmingham, Ala. 35205) was contracted by a fee for service agreement to synthesize AS-7.
After 48 hours, MTS (3-(4,5-dimethylthiazol-2-yl)-5-(3-carboxymethoxyphenyl)-2-(4-sulfophenyl)-2H-tetrazolium) was added and absorbance was measured at 490 nm. […] Values in FIG. 1 are relative to controls that contained only the vehicle in which the drugs were dissolved. Vehicle had no effect on cell viability. Error bars in FIG. 1 are not visible if they are smaller than the symbols. […]
(§1) HeLa cells were seeded in a 96 well tissue culture plate (2000 cells per well). The compounds, 10 μM AS-7 and bortezomib at the concentrations indicated in FIG. 9 were added the following day. After 48 hours, MTS was added and absorbance was measured at 490 nm. […] Values are relative to controls that contained only the vehicle in which the drugs were dissolved. Vehicle had no effect on cell viability.

[2] = tested on: 159C cells; test: MTS cell viability of breast cancer 159C cells, bortezomib with or without AS-7; type: cell-based; conditions: 48 hours, MTS
Description: (§2) Breast cancer derived cell lines, T47D and 159C, were seeded in a 96 well tissue culture plate (2000 cells per well). The significance of these two lines of breast cancer derived cell lines is that the T47D cells positive for three markers used to optimize the chemotherapeutic treatment, namely HER2 receptor, estrogen receptor, and progesterone receptor. By contrast to the T47D cells, the 159C cells are negative for the three markers. The compounds, 10 μM AS-7 and a range of bortezomib (BioVision, Inc., Milpitas, Calif.) concentrations were added the following day. After 48 hours, MTS was added and absorbance was measured at 490 nm.

[3] = tested on: proteasome; test: Proteasome activity measured in lysates of treated cells; type: cell-based; conditions: bortezomib treated HeLa cells; data not shown
Source text: (§3) The cytotoxic action of bortezomib is known to be mediated by proteasome inhibition and the induction of apoptosis.

[4] = tested on: ovarian A2780 cells; test: Crystal violet cell viability of ovarian A2780 cells, bortezomib with or without AS-7 (72 hours); type: cell-based, human; conditions: Homo sapiens, A2780, 72 h, 72 hours, crystal violet, read-out: IC50 of the cytotoxic effect of bortezomib towards ovarian A2780 cells
Description: Ovarian tumor-derived cell lines, IGROV and A2780, were seeded in a 96 well tissue culture plate (2000 cells per well). The compounds, 10 μM AS-7 and bortezomib (BioVision, Inc., Milpitas, Calif.) at the concentrations indicated in the figures, were added the following day. AS-7 was prepared as described in Example I above. […] Values are relative to cells that with the vehicle in which the drugs were dissolved. Vehicle had no effect on cell viability. Error bars in FIG. 6 and FIG. 7 are not shown if they are smaller than the symbols.

[5] = cited from earlier work
[6] = tested on: solid tumors; conditions: phase I and II clinical trials; single agent or in combination with several anticancer drugs; cited from earlier work
[7] = tested on: T47D cells; test: MTS cell viability of breast cancer T47D cells, bortezomib with or without AS-7; type: cell-based, human; conditions: 48 hours, MTS
Description: as §2

[8] = tested on: caspase-3; test: Caspase-3 activity measured in lysates of treated HeLa cells; type: cell-based; conditions: bortezomib treated HeLa cells; data not shown
Source text: as §3

[9] = tested on: Melanoma A2620 cells; test: Crystal violet cell viability of melanoma A2620 cells, bortezomib with or without AS-7 (72 hours); type: cell-based, human; conditions: Homo sapiens, 72 h, read-out: IC50 of bortezomib (loss of cell viability)
Description: as §1, with “Melanoma A2620 cells” for “HeLa cells”, “FIG. 8” for “FIG. 9”, “day.” for “day. After 48 hours, MTS was added and absorbance was measured at 490 nm.”

[10] = tested on: HeLa cells; test: MTS cell viability of HeLa cells treated with anticancer drug with or without AS-7 (48 hours); type: cell-based, human; conditions: Homo sapiens, HeLa, 48 h, 48 hours, MTS, read-out: IC50 of carfilzomib (loss of HeLa cell viability)
[11] = tested on: HeLa cells
Description: HeLa cells were treated with 10 micrograms/ml cycloheximide alone or together with a range of TNF-alpha concentrations from 2.5 to 20 nanograms per ml. Following treatment, the cells were fixed with 4% paraformaldehyde (4° C. for 30 minutes), stained for 30 minutes with 0.5% crystal violet in 10% ethanol, and washed extensively with water to remove dye that was not bound to the cells. Cell bound crystal violet was solubilized with 10% acetic acid and absorbance was measured at 590 nm to quantitate cell growth. The time course data for each cell line were fit by nonlinear regression analysis to the equation for exponential growth using GraphPad Prism software.

Compound: CC(C)CC(C=CS(C)(=O)=O)NC(=O)C(CC(C)C)NC(=O)C(CC(C)C)NC(=O)Cc1cc(I)c(O)c([N+](=O)[O-])c1 (stereo not drawn) [NLVS, 4-hydroxy-5-iodo-3-nitrophenylacetyl-Leu-Leu-leucinal-vinyl sulfone, reference compound]
HeLa cell viability at NLVS concentrations that by themselves had little effect ([1]; in the presence of 10 μM AS-7): complete loss of viability

IC50 ([1]; in the absence of AS-7): ~8.8 nM | IC50 ([1]; in the presence of 10 μM AS-7): ~2.5 nM | IC50 ([9]; in the absence of AS-7, 72 hours): ~7.3 nM | IC50 ([9]; in the presence of 10 μM AS-7, 72 hours): ~2.4 nM
Compound: CC(C)C[C@H](NC(=O)[C@H](Cc1ccccc1)NC(=O)c1cnccn1)B(O)O [bortezomib]
sensitivity to the cytotoxic action of bortezomib by itself [2]: highly sensitive | proteasome activity in cell lysates [3]: markedly inhibited | IC50 ([4]; in the absence of AS-7): ~12.9 nM | IC50 ([4]; in the presence of 10 μM AS-7): ~4.2 nM | median time to improvement from the neurotoxicity ([5]; after discontinuation of bortezomib treatment): three | patients with Grades 1 and 2 peripheral neuropathy ([5]; patients with newly diagnosed disease under bortezomib therapy): ≤ 33% | patients with grades 3 and 4 neurotoxicity ([5]; patients with newly diagnosed disease): up to 18% | patients with Grades 1 and 2 peripheral neuropathy ([5]; patients with recurrent disease under bortezomib therapy): up to 75% | patients with grades 3 and 4 neurotoxicity ([5]; patients with recurrent disease): up to 30% | activity against solid tumors [6]: quite limited activity | sensitivity to the cytotoxic action of bortezomib by itself [7]: highly sensitive | caspase-3 activity in cell lysates [8]: increased

IC50 ([10]; in the absence of AS-7): ~8.5 nM | IC50 ([10]; in the presence of 10 μM AS-7): ~2.5 nM
Compound: CC(C)C[C@H](NC(=O)[C@H](CCc1ccccc1)NC(=O)CN1CCOCC1)C(=O)N[C@@H](Cc1ccccc1)C(=O)N[C@@H](CC(C)C)C(=O)[C@@]1(C)CO1 [carfilzomib]

Compound: C[C@@H]1C[C@@H]([C@H](O)CC2CC(=O)NC(=O)C2)C(=O)[C@@H](C)C1 [cycloheximide, reference compound]
effect on HeLa cell proliferation and cell death ([11]; 10 micrograms/ml cycloheximide alone, 24 hour interval, absence or presence of AS-7): cytostatic, but not cytotoxic

Compound: TNF-alpha
cytotoxicity to HeLa cells ([11]; TNF-alpha in combination with cycloheximide, apparent within six hours): rapidly cytotoxic

Reference: patent publication US20150038541A1, “COMPOSITION AND METHODS FOR CELL MODULATION” (APOSIGNAL BIOSCIENCE LLC, priority 2012, published 2015)
